{"source": "ChEMBL document CHEMBL4387741", "about": "“Optimization of novel reversible Bruton's tyrosine kinase inhibitors identified using Tethering-fragment-based screens” (Bioorg Med Chem, 2019)", "key": {"[1]": {"target": "Dual specificity mitogen-activated protein kinase kinase 6 (Homo sapiens) (UniProt P52564)", "assay": "Inhibition of wild-type human partial length MEK6 (K36 to D334 residues) expressed in bacterial expression system at 1 uM by Kinomescan method relative to control"}, "[2]": {"target": "Serine/threonine-protein kinase PLK1 (Homo sapiens) (UniProt P53350)", "sequence (P53350 whole entry, the tested form may be a part)": "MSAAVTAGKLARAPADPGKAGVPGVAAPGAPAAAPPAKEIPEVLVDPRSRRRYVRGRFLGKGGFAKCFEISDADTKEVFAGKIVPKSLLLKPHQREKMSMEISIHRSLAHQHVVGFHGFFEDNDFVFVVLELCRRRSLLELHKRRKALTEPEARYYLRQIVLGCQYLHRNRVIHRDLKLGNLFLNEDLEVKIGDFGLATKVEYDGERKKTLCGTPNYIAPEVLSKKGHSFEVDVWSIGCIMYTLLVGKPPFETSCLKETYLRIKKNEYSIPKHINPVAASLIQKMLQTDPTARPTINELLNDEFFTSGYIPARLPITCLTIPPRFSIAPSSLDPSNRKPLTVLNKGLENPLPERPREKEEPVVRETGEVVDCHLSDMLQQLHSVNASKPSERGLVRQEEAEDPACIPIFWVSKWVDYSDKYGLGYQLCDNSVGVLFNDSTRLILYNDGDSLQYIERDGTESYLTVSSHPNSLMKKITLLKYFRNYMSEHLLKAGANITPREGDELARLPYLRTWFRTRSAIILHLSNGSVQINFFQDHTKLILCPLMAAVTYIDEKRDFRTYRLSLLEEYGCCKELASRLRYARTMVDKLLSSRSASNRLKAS", "assay": "Inhibition of wild-type human partial length PLK1 (A33 to F325 residues) expressed in mammalian expression system at 1 uM by Kinomescan method relative to control"}, "[3]": {"target": "Tyrosine-protein kinase BTK (Homo sapiens, UniProt Q06187)", "sequence (Q06187 whole entry)": "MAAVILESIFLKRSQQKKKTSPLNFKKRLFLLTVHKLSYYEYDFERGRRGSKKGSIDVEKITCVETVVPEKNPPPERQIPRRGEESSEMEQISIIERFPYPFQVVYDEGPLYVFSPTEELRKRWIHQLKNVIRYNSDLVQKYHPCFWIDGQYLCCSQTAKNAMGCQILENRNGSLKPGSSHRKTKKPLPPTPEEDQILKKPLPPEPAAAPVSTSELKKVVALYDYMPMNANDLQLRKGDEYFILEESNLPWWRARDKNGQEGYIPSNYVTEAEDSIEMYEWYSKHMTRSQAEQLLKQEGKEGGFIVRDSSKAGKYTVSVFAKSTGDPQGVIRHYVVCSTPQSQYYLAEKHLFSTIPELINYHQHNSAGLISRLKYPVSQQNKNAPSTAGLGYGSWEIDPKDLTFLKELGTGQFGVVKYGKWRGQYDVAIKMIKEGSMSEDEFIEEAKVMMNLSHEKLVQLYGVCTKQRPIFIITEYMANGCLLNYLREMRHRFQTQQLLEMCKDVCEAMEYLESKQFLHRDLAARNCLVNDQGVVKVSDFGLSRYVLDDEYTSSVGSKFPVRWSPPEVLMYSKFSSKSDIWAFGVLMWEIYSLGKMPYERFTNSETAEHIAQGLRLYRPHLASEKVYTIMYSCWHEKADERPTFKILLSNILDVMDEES", "assay": "biochemical", "description": "Reversible inhibition of recombinant full-length N-terminal 6-His-tagged human BTK expressed in baculovirus infected Sf21 insect cells using fluorescent-labeled polyGAT peptide as substrate incubated for 30 mins by TR-FRET assay"}, "[4]": {"target": "Cyclin-dependent kinase-like 3 (Homo sapiens) (UniProt Q8IVW4)", "assay": "Inhibition of wild-type human partial length CDKL3 (M1 to D327 residues) expressed in bacterial expression system at 1 uM by Kinomescan method relative to control"}, "[5]": {"target": "Phosphatidylinositol 4-phosphate 3-kinase C2 domain-containing subunit beta (Homo sapiens) (UniProt O00750)", "assay": "Inhibition of wild-type human partial length PIK3C2B (M1 to L1634 residues) expressed in mammalian expression system at 1 uM by Kinomescan method relative to control"}, "[6]": {"tested_on": "Phosphatidylinositol 4,5-bisphosphate 3-kinase catalytic subunit alpha isoform (Homo sapiens), P42336 [H1047L]", "assay": "Inhibition of human partial length PIK3CA H1047L mutant (R108 to N1068 residues) expressed in mammalian expression system at 1 uM by Kinomescan method relative to control"}, "[7]": {"target": "Calcium/calmodulin-dependent protein kinase type 1B (Homo sapiens) (UniProt Q6P2M8)", "assay": "Inhibition of wild-type human partial length CAMK1B (W9 to A311 residues) expressed in mammalian expression system at 1 uM by Kinomescan method relative to control"}, "[8]": {"target": "Serine/threonine-protein kinase N1 (Homo sapiens) (UniProt Q16512)", "assay": "Inhibition of wild-type human partial length PKN1 (E598 to C948 residues) expressed in bacterial expression system at 1 uM by Kinomescan method relative to control"}, "[9]": {"target": "Tyrosine-protein kinase Fyn (Homo sapiens) (UniProt P06241)", "assay": "Inhibition of wild-type human partial length FYN (T243 to L534 residues) expressed in bacterial expression system at 1 uM by Kinomescan method relative to control"}, "[10]": {"target": "Ribosomal protein S6 kinase alpha-2 (Homo sapiens) (UniProt Q15349)", "assay": "Inhibition of wild-type human partial length N-terminal RSK3 kinase domain 1 (M1 to Q385 residues) expressed in bacterial expression system at 1 uM by Kinomescan method relative to control"}, "[11]": {"target": "Serine/threonine-protein kinase SIK1 (Homo sapiens) (UniProt P57059)", "assay": "Inhibition of wild-type human partial length SIK (M1 to Y304 residues) expressed in bacterial expression system at 1 uM by Kinomescan method relative to control"}, "[12]": {"target": "Cyclin-dependent kinase 5 (Homo sapiens) (UniProt Q00535)", "assay": "Inhibition of wild-type human full length CDK5 (M1 to P292 residues) expressed in bacterial expression system at 1 uM by Kinomescan method relative to control"}, "[13]": {"target": "Testis-specific serine/threonine-protein kinase 1 (Homo sapiens) (UniProt Q9BXA7)", "assay": "Inhibition of wild-type human full length TSSK1B (M1 to Q367 residues) expressed in bacterial expression system at 1 uM by Kinomescan method relative to control"}, "[14]": {"target": "Receptor-type tyrosine-protein kinase FLT3 (Homo sapiens) (UniProt P36888)", "assay": "Inhibition of wild-type human partial length FLT3 (V592 to Y969 residues) expressed in bacterial expression system at 1 uM by Kinomescan method relative to control"}, "[15]": {"target": "Serine/threonine-protein kinase Sgk1 (Homo sapiens) (UniProt O00141)", "assay": "Inhibition of wild-type human partial length SGK (I60 to L431 residues) expressed in mammalian expression system at 1 uM by Kinomescan method relative to control"}, "[16]": {"target": "Serine/threonine-protein kinase WNK4 (Homo sapiens) (UniProt Q96J92)", "assay": "Inhibition of wild-type human partial length WNK4 (A31 to D461 residues) expressed in mammalian expression system at 1 uM by Kinomescan method relative to control"}, "[17]": {"target": "Fibroblast growth factor receptor 1 (Homo sapiens) (UniProt P11362)", "assay": "Inhibition of wild-type human partial length FGFR1 (P357 to V669 residues) expressed in bacterial expression system at 1 uM by Kinomescan method relative to control"}, "[18]": {"target": "NT-3 growth factor receptor (Homo sapiens) (UniProt Q16288)", "sequence (Q16288 32-839 limits assumed)": "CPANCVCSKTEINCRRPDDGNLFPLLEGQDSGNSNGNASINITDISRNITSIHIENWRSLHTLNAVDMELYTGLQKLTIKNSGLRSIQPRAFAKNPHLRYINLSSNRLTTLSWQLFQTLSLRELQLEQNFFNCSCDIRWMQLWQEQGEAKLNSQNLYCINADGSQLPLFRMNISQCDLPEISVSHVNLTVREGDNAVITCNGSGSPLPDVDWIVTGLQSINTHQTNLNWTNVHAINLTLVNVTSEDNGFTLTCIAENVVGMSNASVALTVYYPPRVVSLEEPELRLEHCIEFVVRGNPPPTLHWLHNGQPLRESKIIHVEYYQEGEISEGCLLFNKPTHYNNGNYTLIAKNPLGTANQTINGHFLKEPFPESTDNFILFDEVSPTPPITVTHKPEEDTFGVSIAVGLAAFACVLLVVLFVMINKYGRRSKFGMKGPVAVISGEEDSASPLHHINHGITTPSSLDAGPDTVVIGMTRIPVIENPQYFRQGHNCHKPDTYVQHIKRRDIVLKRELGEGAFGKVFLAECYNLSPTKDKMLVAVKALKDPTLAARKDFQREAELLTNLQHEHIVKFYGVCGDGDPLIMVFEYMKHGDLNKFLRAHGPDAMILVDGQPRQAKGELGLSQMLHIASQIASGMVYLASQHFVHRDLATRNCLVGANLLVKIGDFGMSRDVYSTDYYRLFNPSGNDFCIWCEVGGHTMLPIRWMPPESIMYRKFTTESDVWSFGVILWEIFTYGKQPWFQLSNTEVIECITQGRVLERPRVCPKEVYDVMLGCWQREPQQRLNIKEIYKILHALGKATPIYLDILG", "assay": "Inhibition of wild-type human partial length TRKC (Q531 to G825 residues) expressed in mammalian expression system at 10 uM by Kinomescan method relative to control"}, "[19]": {"target": "BMP-2-inducible protein kinase (Homo sapiens) (UniProt Q9NSY1)", "assay": "Inhibition of wild-type human partial length BIKE (S34 to N329 residues) expressed in bacterial expression system at 10 uM by Kinomescan method relative to control"}, "[20]": {"target": "Serine/threonine-protein kinase 25 (Homo sapiens) (UniProt O00506)", "sequence (O00506 whole entry, looked up, the tested form may be a part)": "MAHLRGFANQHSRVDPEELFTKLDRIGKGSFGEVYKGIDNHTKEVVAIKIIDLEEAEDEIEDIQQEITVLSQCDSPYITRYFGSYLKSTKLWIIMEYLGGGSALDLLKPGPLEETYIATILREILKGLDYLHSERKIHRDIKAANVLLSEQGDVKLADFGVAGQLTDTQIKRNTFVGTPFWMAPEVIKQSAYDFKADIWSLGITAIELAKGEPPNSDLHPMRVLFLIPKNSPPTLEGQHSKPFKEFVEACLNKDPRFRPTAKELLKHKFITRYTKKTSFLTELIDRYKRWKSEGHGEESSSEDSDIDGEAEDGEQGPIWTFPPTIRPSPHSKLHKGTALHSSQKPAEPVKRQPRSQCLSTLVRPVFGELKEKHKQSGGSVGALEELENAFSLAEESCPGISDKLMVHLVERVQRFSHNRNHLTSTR", "assay": "Inhibition of wild-type human partial length YSK1 (V14 to H295 residues) expressed in bacterial expression system at 10 uM by Kinomescan method relative to control"}, "[21]": {"tested_on": "Epidermal growth factor receptor (Homo sapiens), P00533 [UNDEFINED MUTATION]", "sequence (P00533 whole entry, looked up, stated change not applied)": "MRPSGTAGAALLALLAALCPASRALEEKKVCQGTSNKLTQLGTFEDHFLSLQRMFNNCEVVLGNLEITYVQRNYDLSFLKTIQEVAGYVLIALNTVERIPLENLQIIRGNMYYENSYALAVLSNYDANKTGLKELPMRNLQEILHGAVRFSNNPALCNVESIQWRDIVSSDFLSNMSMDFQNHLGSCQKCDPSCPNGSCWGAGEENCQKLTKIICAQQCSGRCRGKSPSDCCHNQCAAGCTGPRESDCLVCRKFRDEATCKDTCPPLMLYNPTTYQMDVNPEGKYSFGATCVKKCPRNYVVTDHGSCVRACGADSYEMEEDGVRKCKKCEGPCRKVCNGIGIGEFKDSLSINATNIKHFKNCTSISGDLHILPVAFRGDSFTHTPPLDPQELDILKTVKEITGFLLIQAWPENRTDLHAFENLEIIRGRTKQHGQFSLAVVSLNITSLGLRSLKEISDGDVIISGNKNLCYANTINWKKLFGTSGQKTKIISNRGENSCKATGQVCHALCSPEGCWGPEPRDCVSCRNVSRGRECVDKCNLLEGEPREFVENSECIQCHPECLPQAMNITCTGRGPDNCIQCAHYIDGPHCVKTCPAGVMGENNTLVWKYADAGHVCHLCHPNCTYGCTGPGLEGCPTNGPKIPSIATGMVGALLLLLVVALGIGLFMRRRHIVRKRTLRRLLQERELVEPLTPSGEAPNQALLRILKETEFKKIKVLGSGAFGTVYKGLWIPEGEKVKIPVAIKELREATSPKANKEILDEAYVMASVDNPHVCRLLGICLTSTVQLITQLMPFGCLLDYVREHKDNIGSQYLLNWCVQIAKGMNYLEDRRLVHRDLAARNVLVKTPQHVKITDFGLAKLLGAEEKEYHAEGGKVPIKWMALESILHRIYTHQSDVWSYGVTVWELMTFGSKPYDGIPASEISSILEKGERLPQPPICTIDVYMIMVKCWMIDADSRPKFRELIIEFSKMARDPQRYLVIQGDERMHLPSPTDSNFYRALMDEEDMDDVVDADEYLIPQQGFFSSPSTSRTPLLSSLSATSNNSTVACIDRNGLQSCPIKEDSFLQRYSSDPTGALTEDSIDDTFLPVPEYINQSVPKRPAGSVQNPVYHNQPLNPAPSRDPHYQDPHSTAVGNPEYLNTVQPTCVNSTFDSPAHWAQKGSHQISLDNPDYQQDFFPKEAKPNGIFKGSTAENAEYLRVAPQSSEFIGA", "assay": "Inhibition of human partial length EGFR L747-T751del/Sins mutant expressed in bacterial expression system at 10 uM by Kinomescan method relative to control"}, "[22]": {"target": "Serine/threonine-protein kinase PLK1 (Homo sapiens) (UniProt P53350)", "assay": "Inhibition of wild-type human partial length PLK1 (A33 to F325 residues) expressed in mammalian expression system at 10 uM by Kinomescan method relative to control"}, "[23]": {"target": "Protein kinase C theta type (Homo sapiens) (UniProt Q04759)", "assay": "Inhibition of wild-type human partial length PRKCQ (L350 to S706 residues) expressed in bacterial expression system at 10 uM by Kinomescan method relative to control"}, "[24]": {"target": "Mitotic checkpoint serine/threonine-protein kinase BUB1 (Homo sapiens) (UniProt O43683)", "assay": "Inhibition of wild-type human partial length BUB1 (Q724 to K1085 residues) expressed in mammalian expression system at 10 uM by Kinomescan method relative to control"}, "[25]": {"tested_on": "Epidermal growth factor receptor (Homo sapiens), P00533 [G719S]", "sequence (P00533 whole entry G719S, the tested form may be a part)": "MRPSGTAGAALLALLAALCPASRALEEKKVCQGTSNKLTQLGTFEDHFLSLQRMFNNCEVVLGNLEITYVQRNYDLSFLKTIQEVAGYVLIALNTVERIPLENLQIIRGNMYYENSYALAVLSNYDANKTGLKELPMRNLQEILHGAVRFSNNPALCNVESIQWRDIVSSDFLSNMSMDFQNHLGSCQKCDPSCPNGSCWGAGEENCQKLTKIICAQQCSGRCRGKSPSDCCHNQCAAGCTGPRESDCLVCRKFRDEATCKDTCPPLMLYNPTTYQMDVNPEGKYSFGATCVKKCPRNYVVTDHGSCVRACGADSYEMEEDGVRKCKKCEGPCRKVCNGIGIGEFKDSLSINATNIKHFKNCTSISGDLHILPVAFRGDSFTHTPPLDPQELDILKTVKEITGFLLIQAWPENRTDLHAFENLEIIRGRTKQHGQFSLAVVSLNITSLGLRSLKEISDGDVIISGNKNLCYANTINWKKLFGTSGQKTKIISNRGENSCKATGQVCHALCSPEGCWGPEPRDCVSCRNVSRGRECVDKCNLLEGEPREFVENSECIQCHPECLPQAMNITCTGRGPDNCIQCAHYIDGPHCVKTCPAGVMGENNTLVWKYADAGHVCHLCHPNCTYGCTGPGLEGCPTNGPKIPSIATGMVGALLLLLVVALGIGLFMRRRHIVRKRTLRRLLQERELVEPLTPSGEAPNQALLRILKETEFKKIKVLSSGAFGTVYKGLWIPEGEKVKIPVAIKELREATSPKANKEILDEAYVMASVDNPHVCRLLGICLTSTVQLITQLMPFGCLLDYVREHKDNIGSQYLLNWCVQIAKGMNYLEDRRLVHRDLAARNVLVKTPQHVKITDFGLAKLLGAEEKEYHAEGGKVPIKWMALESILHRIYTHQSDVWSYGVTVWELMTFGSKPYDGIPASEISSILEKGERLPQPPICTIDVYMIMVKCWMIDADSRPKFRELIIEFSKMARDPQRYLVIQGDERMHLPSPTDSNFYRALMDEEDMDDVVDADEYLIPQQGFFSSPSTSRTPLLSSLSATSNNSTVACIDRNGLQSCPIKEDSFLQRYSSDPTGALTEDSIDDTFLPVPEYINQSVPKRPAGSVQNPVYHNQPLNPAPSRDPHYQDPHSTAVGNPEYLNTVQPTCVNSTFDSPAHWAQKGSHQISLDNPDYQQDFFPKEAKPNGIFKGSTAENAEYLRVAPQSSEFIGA", "assay": "Inhibition of human partial length EGFR G719S mutant (R669 to V1011 residues) expressed in bacterial expression system at 10 uM by Kinomescan method relative to control"}, "[26]": {"target": "Serine/threonine-protein kinase TAO2 (Homo sapiens) (UniProt Q9UL54)", "assay": "Inhibition of wild-type human partial length TAOK2 (M1 to A320 residues) expressed in mammalian expression system at 10 uM by Kinomescan method relative to control"}, "[27]": {"target": "Tyrosine-protein kinase FRK (Homo sapiens) (UniProt P42685)", "assay": "Inhibition of wild-type human partial length FRK (A215 to F503 residues) expressed in bacterial expression system at 10 uM by Kinomescan method relative to control"}}, "data": [{"compound": "O=C(Nc1cccc([C@@H]2CN(c3ncnc4[nH]ccc34)CCN2CCO)c1)Nc1c(F)cccc1N1CCCC1", "values": [{"measurement": "inhibition", "setting": "[1]", "result": 92, "unit": "%"}, {"measurement": "inhibition", "setting": "[2]", "result": 86, "unit": "%"}, {"measurement": "IC50", "setting": "[3]", "result": 1, "unit": "nM"}, {"measurement": "inhibition", "setting": "[4]", "result": 100, "unit": "%"}, {"measurement": "inhibition", "setting": "[5]", "result": 87, "unit": "%"}, {"measurement": "inhibition", "setting": "[6]", "result": 100, "unit": "%"}, {"measurement": "inhibition", "setting": "[7]", "result": 98, "unit": "%"}, {"measurement": "inhibition", "setting": "[8]", "result": 80, "unit": "%"}, {"measurement": "inhibition", "setting": "[9]", "result": 52, "unit": "%"}, {"measurement": "inhibition", "setting": "[10]", "result": 88, "unit": "%"}, {"measurement": "inhibition", "setting": "[11]", "result": 55, "unit": "%"}, {"measurement": "inhibition", "setting": "[12]", "result": 68, "unit": "%"}, {"measurement": "inhibition", "setting": "[13]", "result": 100, "unit": "%"}, {"measurement": "inhibition", "setting": "[14]", "result": 52, "unit": "%"}, {"measurement": "inhibition", "setting": "[15]", "result": 64, "unit": "%"}, {"measurement": "inhibition", "setting": "[16]", "result": 96, "unit": "%"}, {"measurement": "inhibition", "setting": "[17]", "result": 46, "unit": "%"}]}, {"compound": "O=C(Nc1cccc([C@H]2CCCN(c3ncnc4[nH]ccc34)C2)c1)Nc1ccccc1N1CCCC1", "values": [{"measurement": "inhibition", "setting": "[18]", "result": 36, "unit": "%"}, {"measurement": "inhibition", "setting": "[19]", "result": 0, "unit": "%"}, {"measurement": "inhibition", "setting": "[20]", "result": 100, "unit": "%"}, {"measurement": "inhibition", "setting": "[21]", "result": 88, "unit": "%"}, {"measurement": "inhibition", "setting": "[22]", "result": 72, "unit": "%"}, {"measurement": "inhibition", "setting": "[23]", "result": 100, "unit": "%"}, {"measurement": "inhibition", "setting": "[24]", "result": 55, "unit": "%"}, {"measurement": "inhibition", "setting": "[25]", "result": 81, "unit": "%"}, {"measurement": "inhibition", "setting": "[26]", "result": 100, "unit": "%"}, {"measurement": "inhibition", "setting": "[27]", "result": 96, "unit": "%"}]}]}
